Test results from ChEMBL document CHEMBL1135045, “alpha(1)-Adrenoceptor antagonists. Rational design, synthesis and biological evaluation of new trazodone-like compounds” (Bioorg Med Chem Lett, 2002).

What was measured:
[1] = molecular target: T1, Adrenergic receptor alpha-2 (Rattus norvegicus, UniProt P22086+P19328+P22909); experiment: Binding affinity by its ability to displace [3H]rauwolscine radioligand from Alpha-2 adrenergic receptor on rat cerebral cortex; assay type: tissue-based
T1 sequence (P22086 whole entry): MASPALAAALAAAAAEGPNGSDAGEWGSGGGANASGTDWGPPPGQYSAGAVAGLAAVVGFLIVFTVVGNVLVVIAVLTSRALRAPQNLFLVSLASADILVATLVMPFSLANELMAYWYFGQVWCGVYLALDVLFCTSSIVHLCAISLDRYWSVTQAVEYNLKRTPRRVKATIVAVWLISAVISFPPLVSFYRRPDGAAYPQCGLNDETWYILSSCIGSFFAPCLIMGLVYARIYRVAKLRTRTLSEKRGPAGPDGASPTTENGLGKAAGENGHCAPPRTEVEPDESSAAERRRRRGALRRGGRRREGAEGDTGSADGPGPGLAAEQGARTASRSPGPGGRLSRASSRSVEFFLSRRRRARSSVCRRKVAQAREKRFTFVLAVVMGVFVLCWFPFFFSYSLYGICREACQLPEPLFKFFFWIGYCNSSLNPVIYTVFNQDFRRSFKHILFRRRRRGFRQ
T1 sequence (P19328 whole entry): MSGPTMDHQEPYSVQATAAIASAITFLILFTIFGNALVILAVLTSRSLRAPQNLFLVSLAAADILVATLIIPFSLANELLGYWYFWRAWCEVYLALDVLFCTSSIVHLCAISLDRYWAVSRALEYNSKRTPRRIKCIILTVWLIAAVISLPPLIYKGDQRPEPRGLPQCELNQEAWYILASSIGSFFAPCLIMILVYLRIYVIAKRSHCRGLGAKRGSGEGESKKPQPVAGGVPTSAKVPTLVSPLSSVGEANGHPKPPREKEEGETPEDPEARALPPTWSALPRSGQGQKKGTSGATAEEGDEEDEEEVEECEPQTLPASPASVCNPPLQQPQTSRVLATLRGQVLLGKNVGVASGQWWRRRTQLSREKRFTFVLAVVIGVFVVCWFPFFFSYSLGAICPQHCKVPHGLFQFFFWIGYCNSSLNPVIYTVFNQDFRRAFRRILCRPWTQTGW
T1 sequence (P22909 whole entry): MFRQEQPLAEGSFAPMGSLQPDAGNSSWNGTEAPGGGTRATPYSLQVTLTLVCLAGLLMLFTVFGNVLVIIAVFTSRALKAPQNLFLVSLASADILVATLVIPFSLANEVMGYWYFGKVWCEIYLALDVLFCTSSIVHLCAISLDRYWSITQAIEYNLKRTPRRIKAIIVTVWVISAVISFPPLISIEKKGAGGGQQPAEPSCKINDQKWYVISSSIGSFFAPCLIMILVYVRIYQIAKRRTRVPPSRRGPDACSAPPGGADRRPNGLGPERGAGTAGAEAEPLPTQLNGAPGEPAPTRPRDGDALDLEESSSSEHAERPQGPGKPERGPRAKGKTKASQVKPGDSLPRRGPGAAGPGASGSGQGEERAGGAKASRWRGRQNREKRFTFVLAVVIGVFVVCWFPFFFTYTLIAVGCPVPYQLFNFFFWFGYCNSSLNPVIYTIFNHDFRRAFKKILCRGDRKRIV

[2] = molecular target: T2, Adrenergic receptor alpha-1 (Rattus norvegicus, UniProt P15823+P23944+P43140); experiment: Binding affinity by its ability to displace [3H]prazosin radioligand from Alpha-1 adrenergic receptor on rat cerebral cortex; assay type: tissue-based
T2 sequence (P15823 whole entry): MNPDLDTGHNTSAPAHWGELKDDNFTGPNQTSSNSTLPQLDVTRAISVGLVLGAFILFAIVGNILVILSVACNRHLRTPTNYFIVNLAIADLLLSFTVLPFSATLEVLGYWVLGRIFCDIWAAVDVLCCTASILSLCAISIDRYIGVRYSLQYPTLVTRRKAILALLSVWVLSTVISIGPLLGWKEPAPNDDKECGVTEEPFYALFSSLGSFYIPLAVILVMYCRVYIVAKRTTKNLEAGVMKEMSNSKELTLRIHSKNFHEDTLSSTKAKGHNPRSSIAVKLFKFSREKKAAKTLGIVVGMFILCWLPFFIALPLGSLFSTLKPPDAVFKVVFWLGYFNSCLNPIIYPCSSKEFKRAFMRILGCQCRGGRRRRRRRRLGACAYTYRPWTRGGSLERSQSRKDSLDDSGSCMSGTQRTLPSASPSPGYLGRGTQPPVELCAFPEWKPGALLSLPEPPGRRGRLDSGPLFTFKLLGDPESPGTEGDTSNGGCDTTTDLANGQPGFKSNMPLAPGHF
T2 sequence (P23944 whole entry): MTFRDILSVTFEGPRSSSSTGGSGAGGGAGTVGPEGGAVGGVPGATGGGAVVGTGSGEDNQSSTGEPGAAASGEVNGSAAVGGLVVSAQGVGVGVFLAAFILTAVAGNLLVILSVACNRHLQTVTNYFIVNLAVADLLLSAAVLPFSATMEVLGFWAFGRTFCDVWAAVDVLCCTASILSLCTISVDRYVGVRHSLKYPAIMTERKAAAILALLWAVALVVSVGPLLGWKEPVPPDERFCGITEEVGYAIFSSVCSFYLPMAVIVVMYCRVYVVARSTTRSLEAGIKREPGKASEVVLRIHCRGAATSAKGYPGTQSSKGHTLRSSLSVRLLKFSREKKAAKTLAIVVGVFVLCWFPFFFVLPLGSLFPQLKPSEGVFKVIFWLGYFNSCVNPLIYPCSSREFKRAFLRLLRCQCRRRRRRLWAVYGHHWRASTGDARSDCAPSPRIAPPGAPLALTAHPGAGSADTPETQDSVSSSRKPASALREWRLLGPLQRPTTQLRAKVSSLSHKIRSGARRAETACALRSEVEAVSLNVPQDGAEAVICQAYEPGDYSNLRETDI
T2 sequence (P43140 whole entry): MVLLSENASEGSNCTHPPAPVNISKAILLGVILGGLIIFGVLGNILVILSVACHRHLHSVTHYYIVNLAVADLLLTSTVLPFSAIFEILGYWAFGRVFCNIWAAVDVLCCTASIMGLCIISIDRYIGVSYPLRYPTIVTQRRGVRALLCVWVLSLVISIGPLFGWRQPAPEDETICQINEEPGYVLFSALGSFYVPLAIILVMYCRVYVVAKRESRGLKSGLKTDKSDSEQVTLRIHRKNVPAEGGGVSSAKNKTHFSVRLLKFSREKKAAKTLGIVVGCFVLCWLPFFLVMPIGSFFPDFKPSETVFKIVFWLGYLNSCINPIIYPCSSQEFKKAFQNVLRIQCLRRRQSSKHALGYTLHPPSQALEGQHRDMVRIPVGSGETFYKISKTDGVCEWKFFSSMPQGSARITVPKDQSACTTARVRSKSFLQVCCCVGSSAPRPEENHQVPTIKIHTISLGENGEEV

Work on `COc1ccccc1N1CCN(CCCCn2nc(-n3cnc4ccccc43)ccc2=O)CC1` yielded a Ki [1] of 16 nM and a Ki [2] of 1.1 nM.

`O=c1ccc(-n2ccnc2)nn1CCCN1CCN(c2ccccc2Cl)CC1` showed a Ki [1] of 436.6 nM and a Ki [2] of 48.3 nM.

Molecule `COc1ccccc1N1CCN(CCCn2nc(-n3cnc4ccccc43)ccc2=O)CC1` has a Ki [1] of 158.3 nM and a Ki [2] of 6.5 nM.

For `O=c1ccc(-n2cnc3ccccc32)nn1CCCN1CCN(c2ccccc2Cl)CC1`, the Ki [1] was 44.7 nM and the Ki [2] was 15.2 nM.

With `COc1ccccc1N1CCN(CCCn2nc(-n3ccnc3)ccc2=O)CC1` the Ki [1] was 673.4 nM and the Ki [2] was 115.4 nM.
